Data set [1] concerns SH-SY5Y cells. Briefly: Cytotoxicity on SH-SY5Y cells (MTT). Type of data set: cell-based, human. The note with it: for Cytotoxic effect on SH-SY5Y cells: 1 μM; for SH-SY5Y cell viability (% of control): cytotoxic effect, 1 µM compound alone, MTT, mean ± SEM. The method, then:
(§1) Cell culture chemicals were purchased from Lonza, HyClone, or Thermo Scientific. Human neuroblastoma SH-SY5Y cells were maintained in Dulbecco’s modified Eagle’s medium (DMEM) supplemented with 10% FBS, 1% L-glutamine, and 1% antibiotic mix at 37°C in a humidified atmosphere containing 5% CO2. Cell viability was determined using a thiazolyl blue tetrazolium bromide [3-(4,5-dimethyl-2-thiazolyl)-2,5-diphenyl-2H-tetrazolium bromide] (MTT) assay ([Datki et al., 2003]). SH-SY5Y cells were seeded into 384-well plates at 3,000 cells per well and treated with novel compounds at a concentration of 1 μM, 3 h prior to the addition of Aβ1–42 (5 μM). After 24 h of incubation, 5 μl of the MTT reagent (5 mg/ml) was added to each well. 40 μl of DMSO was used to dissolve formazan crystals. Absorbance values were measured at 690 and 570 nm using a BMG Omega Fluorostar microplate reader.

In data set [2] the target is T1, Aβ1-42 and AChE (human recombinant AChE) (Homo sapiens, UniProt P22303).
T1 construct: Amyloid-β protein 1–42 (Sigma A9810) was dissolved; purchased Sigma C1682 (AChE); A9810 (Aβ1-42)
The data set is described as follows: Inhibition of AChE-induced Aβ1-42 aggregation (ThT assay). Type of data set: biochemical. The note with it: Aβ1-42 and AChE (0.01 u/ml), compound 100 μM, mean ± SEM of three experiments, read-out: Inhibition of AChE-induced Aβ aggregation. The protocol: Amyloid-β protein 1–42 (Sigma A9810) was dissolved in Phosphate Buffer Saline pH 7.4 (PBS, HyClone Thermo Scientific) containing ammonium hydroxide (1%). Aβ1-42 (50 μM) was incubated for 24 h at 37°C for prefibrillation.
(§2) To determine AChE-induced Aβ1-42 aggregation, Aβ1-42 (20 μl) ± human recombinant AChE (0.01 u/ml, Sigma C1682) were added to […] of PBS buffer pH 7.4 including 0.15 M NaCl and 20 μM thioflavin T (ThT). The mixture was incubated at 37°C in the absence and presence of the compounds (100 μM) and the fluorescence intensities were determined. Due to the presence of the tested compounds, inhibition of self- or AChE-induced aggregation percent was determined by the following calculation: [100-((IFi/IFo) × 100)] where IFi and IFo are the fluorescence intensities obtained for Aβ ± AChE in the presence and in the absence of inhibitors.

Data set [3] has as its system SH-SY5Y cells. The data set is described as follows: Neuroprotection against Aβ1-42-induced cytotoxicity in SH-SY5Y cells (MTT). Type of data set: cell-based, human. Particulars: for SH-SY5Y cell viability (% of control): 1 µM compound before 5 μM Aβ1-42, MTT, mean ± SEM. The protocol: as §1, with “(MTT) assay ([Datki et al., 2003]).” left out
Another data set addresses T2, Aβ1-42 (Homo sapiens, UniProt P05067).
T2 construct: Amyloid-β protein 1–42 (Sigma A9810) was dissolved; purchased Sigma A9810
The data set is described as follows: Inhibition of self-induced Aβ1-42 aggregation (ThT assay). Type of data set: biochemical. The note with it: for Inhibition of self-induced Aβ aggregation: Aβ1-42 20 μM, compound 100 μM, after 48 h, ThT, mean ± SEM of three experiments; for Inhibition of Aβ aggregation, fold more effective than the reference drug donepezil: self-induced Aβ aggregation, ThT assay. The protocol: Inhibitory properties of the compounds on self-induced and AChE-induced aggregation of amyloid-β protein 1–42 was determined using a thioflavin T (ThT)-based fluorescence assay with slight modifications ([Levine, 1993]). The ThT excitation/emission was measured at 448 nm/490 nm at 48 h using a SpectraMax® Microplate Reader. Amyloid-β protein 1–42 (Sigma A9810) was dissolved in Phosphate Buffer Saline pH 7.4 (PBS, HyClone Thermo Scientific) containing ammonium hydroxide (1%). Aβ1-42 (50 μM) was incubated for 24 h at 37°C for prefibrillation.
as §2

The next data set has as its system PC12 cells. The data set is described as follows: Neuroprotection against H2O2-induced cell death in PC12 cells (MTT). Type of data set: cell-based. The note with it: H2O2 (150 μM)-induced injury, mean ± SEM. The protocol:
The cell viability was measured using MTT [3-(4,5-dimethylthiazol-2-yl)-2,5-diphenyl tetrazolium bromide] assay ([Datki et al., 2003]). PC12 cells (from the Iranian Biological Resource Center, IBRC) received different treatments, including no treatment (control), 150 μM H2O2 alone, or 150 μM H2O2 in combination with 0.1–50 μM of the tested compound. The cells were seeded at 1 × 10^4 cells/well and incubated at 37 °C under a 5% CO2 atmosphere for 24 h, then treated with the tested compound and incubated for 3 h. Next, the cells were exposed to H2O2 for 2 h again. The MTT solution (20 μl, 5 mg/ml) was next replaced with the medium and incubated for 4 h. 100 μl of DMSO was added to dissolve the formazan precipitate. Absorbance was then measured at 570 nm using a multi-mode plate reader (Biotek, Winooski, VT). Cell viability is expressed as a percentage relative to the untreated control.

The target of a further data set is T3, BuChE (equine serum) (Equus caballus, UniProt P81908).
T3 construct: purchased Sigma-Aldrich
Briefly: biochemical. Type of data set: biochemical. Particulars: for IC50: equine serum BuChE, mean ± SEM of three experiments. The method, then:
(§3) AChE, BuChE, 5,5'-dithiobis (2-nitrobenzoic acid) (DTNB), acetyl- and butyrylthiocholine iodides were purchased from Sigma-Aldrich. Five different concentrations of the corresponding compounds in ethanol-DMSO (9:1) were prepared. […] After 3 min of incubation, the substrate solution (acetylthiocholine iodide or butyrylthiocholine iodide, 0.05 M) was added and then incubated for at least 1 min at 25°C. […] The inhibition curve was obtained by plotting the percentage of enzyme activity (100% for the reference) versus the logarithm of the tested compound concentration. […]

The next data set deals with T4, AChE (electric eel) (Electrophorus electricus, UniProt O42275).
T4 construct: purchased Sigma-Aldrich
The data set is described as follows: biochemical. Type of data set: biochemical. The note with it: for IC50: electric eel AChE, mean ± SEM of three experiments. The protocol: as §3

Where [4] appears, read: ratio of IC50 values vs Donepezil.

Several values for one entry are separate records, joined by “and”; a condition that tells them apart may be missing. Equal entries are not always repeated.

T2 sequence (P05067 672-713 limits assumed): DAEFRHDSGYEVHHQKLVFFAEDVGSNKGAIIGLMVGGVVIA
T3 sequence (P81908 whole entry): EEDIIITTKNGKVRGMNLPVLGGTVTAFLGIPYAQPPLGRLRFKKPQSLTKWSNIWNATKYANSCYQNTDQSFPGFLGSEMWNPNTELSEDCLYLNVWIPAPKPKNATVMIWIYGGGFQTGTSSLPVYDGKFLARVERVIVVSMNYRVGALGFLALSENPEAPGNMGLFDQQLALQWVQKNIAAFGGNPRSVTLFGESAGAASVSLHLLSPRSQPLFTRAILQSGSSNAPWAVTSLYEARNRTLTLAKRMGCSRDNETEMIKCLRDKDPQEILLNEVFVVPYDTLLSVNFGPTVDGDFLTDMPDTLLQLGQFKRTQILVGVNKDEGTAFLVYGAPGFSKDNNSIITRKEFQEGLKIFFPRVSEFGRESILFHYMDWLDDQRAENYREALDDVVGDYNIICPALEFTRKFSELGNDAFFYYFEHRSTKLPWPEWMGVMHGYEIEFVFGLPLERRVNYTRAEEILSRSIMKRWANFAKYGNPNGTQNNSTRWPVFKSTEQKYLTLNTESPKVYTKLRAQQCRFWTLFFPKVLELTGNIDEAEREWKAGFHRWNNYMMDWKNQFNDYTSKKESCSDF
T1 sequence (P22303 32-614): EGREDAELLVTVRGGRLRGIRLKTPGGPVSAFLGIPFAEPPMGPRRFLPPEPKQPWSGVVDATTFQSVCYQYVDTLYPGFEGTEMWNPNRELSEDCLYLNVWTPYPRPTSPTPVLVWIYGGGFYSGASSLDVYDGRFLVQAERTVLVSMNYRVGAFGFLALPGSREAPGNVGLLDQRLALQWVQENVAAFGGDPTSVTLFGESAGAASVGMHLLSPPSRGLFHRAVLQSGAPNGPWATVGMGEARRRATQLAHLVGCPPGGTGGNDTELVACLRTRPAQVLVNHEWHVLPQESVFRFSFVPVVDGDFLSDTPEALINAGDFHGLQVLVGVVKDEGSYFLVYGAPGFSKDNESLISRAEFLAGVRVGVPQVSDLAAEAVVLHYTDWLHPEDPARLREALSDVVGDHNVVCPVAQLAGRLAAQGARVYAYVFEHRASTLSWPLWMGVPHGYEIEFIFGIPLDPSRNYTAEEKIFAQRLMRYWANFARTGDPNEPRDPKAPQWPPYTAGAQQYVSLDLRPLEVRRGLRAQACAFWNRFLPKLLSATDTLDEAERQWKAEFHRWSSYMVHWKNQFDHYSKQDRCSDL
T4 sequence (O42275 24-633): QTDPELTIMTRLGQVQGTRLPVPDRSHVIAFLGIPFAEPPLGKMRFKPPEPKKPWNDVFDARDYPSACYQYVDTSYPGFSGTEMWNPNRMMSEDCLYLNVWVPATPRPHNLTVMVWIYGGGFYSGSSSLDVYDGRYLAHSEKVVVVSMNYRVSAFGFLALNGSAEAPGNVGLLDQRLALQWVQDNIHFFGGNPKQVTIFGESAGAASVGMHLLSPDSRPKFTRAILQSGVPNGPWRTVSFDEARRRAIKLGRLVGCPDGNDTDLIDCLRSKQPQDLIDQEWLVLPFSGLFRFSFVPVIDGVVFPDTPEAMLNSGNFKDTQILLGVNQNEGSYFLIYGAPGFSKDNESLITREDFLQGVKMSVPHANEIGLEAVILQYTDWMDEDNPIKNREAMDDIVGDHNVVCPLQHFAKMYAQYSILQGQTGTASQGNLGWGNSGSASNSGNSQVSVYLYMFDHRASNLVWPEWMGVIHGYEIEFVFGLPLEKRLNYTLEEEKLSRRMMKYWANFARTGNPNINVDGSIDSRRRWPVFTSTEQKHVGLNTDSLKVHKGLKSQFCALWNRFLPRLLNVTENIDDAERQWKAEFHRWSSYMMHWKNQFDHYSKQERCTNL

The inhibition is the percentage by which the read-out fell short of the control. For orientation: IC50 means the concentration needed to halve the response being measured. The low end stands for greater potency, the high end for weaker potency. In the case of `O=c1oc2ccccc2cc1-c1ccc(OCCC[n+]2ccccc2)cc1.[Br-]` [Compound 3a, 1-(3-(4-(2-Oxo-2H-chromen-3-yl)phenoxy)propyl)pyridinium Bromide], the “Cytotoxic effect on SH-SY5Y cells” value in the data set with SH-SY5Y cells [1] is listed as “no cytotoxic effect”. Also, the “SH-SY5Y cell viability (% of control)” value in the data set on SH-SY5Y cells [1] was 81.2 ± 10.0 % of control; with SH-SY5Y cells [3] it was 79 % of control and 79.1 ± 4.0 % of control. In data set [2], the inhibition at 100 µM amounted to 76 ± 1.6%. The “Inhibition of self-induced Aβ aggregation” value at Aβ1-42 was 73.3 ± 15.4%. For the same molecule, on Aβ1-42, the “Inhibition of Aβ aggregation, fold more effective than the reference drug donepezil” value is “about 2 fold”. The “PC12 cell viability (% of control)” value with PC12 cells (0.1 μM compound) is on record as 39.4 ± 1.7 % of control; in the data set on PC12 cells (1 μM compound), 42.2 ± 1.3 % of control; with PC12 cells (5 μM compound), 53.6 ± 1.4 % of control; in the data set with PC12 cells (10 μM compound) it was 55.6 ± 0.1 % of control; with PC12 cells (20 μM compound), 57.4 ± 0.4 % of control; in the data set on PC12 cells (50 μM compound), 58.3 ± 1.4 % of control. The values for the IC50 on BuChE (equine serum) and on AChE (electric eel) were 84 ± 4 nM and 4 nM, respectively.
As to `O=c1oc2ccc([N+](=O)[O-])cc2cc1-c1ccc(OCCC[n+]2ccccc2)cc1.[Br-]` [Compound 3f, 1-(3-(4-(6-Nitro-2-oxo-2H-chromen-3-yl)phenoxy)propyl)pyridinium Bromide], the “Cytotoxic effect on SH-SY5Y cells” value in the data set with SH-SY5Y cells [1] is on record as “no cytotoxic effect”. Moreover, the “SH-SY5Y cell viability (% of control)” value was 83.6 ± 3.4 % of control with SH-SY5Y cells [1]; 89 % of control and 89.0 ± 9.8 % of control in the data set on SH-SY5Y cells [3]. Further, the inhibition at 100 µM in data set [2] amounted to 87.2 ± 5.7%. The “Inhibition of self-induced Aβ aggregation” value at Aβ1-42 amounted to 84.7 ± 1.6%. For the same molecule, on Aβ1-42, the “Inhibition of Aβ aggregation, fold more effective than the reference drug donepezil” value is “about 2 fold”. The “PC12 cell viability (% of control)” value is given as 34.1 ± 1.0 % of control in the data set with PC12 cells (0.1 μM compound); 42.8 ± 1.4 % of control in the data set with PC12 cells (1 μM compound); 43.1 ± 1.5 % of control in the data set on PC12 cells (5 μM compound); 45.0 ± 0.8 % of control in the data set with PC12 cells (10 μM compound); 48.3 ± 0.4 % of control in the data set on PC12 cells (20 μM compound); 50.8 ± 0.6 % of control in the data set on PC12 cells (50 μM compound). Besides, the IC50 against BuChE (equine serum) is 24 ± 5 nM; against AChE (electric eel) it was 2 nM. The “AChE inhibition, times more active than the standard drug Donepezil” value on AChE (electric eel) (setting [4]) was 7 times.
As to `CN(C)c1cc[n+](CCCOc2ccc(-c3cc4cc([N+](=O)[O-])ccc4oc3=O)cc2)cc1.[Br-]` [Compound 3t, 4-(Dimethylamino)-1-(3-(4-(6-nitro-2-oxo-2H-chromen-3-yl)phenoxy)propyl)pyridin-1-ium Bromide], in the data set with SH-SY5Y cells [1], the “Cytotoxic effect on SH-SY5Y cells” value is recorded as “no cytotoxic effect”. Further, the “SH-SY5Y cell viability (% of control)” value is 84.8 ± 6.8 % of control in the data set with SH-SY5Y cells [1] and 59.7 ± 2.8 % of control with SH-SY5Y cells [3]. Also, the inhibition at 100 µM in data set [2] was 52.5 ± 4.9%. For the same molecule, the “Neuroprotective effect against Aβ1-42-induced cytotoxicity in SH-SY5Y cells” value with SH-SY5Y cells [3] (1 μM) is reported as “could not protect neuronal cells”. Also, at Aβ1-42, the “Inhibition of self-induced Aβ aggregation” value came out at 66.4 ± 4.7%. For the same molecule, the “Inhibition of Aβ aggregation, fold more effective than the reference drug donepezil” value on Aβ1-42 is given as “about 2 fold”. In addition, the “PC12 cell viability (% of control)” value is given as 38.3 ± 0.9 % of control in the data set with PC12 cells (0.1 μM compound); 45.3 ± 0.7 % of control in the data set on PC12 cells (1 μM compound); 53.6 ± 0.7 % of control with PC12 cells (5 μM compound); 56.3 ± 1.6 % of control in the data set with PC12 cells (10 μM compound); 68.2 ± 0.1 % of control in the data set with PC12 cells (20 μM compound); 71.8 ± 1.1 % of control in the data set on PC12 cells (50 μM compound). Moreover, the IC50 against BuChE (equine serum) is 9 ± 0.4 nM; against AChE (electric eel), 14 ± 0.9 nM. For the same molecule, the “BuChE inhibition, times more active than the standard drug Donepezil” value on BuChE (equine serum) (setting [4]) is recorded as 305 times.

The values are drawn from PMC9280334 (Frontiers in Chemistry, 2022).
